From article PMC9028392, “Oleyl Conjugated Histidine-Arginine Cell-Penetrating Peptides as Promising Agents for siRNA Delivery” (Pharmaceutics, 2022)

Assays:
[1] = Dynamic light scattering, hydrodynamic diameter and PDI of peptide-siRNA complexes; type: physicochemical; conditions: DLS, 25 °C, peptide-siRNA complex at N/P 40, siRNA 50 nM, HBSS, mean of three independent experiments; for Z-Ave (hydrodynamic diameter): Malvern Nano ZS Zetasizer
From the text: The complex of oleyl conjugated peptides and siRNA was formed through physical mixing. Appropriate volumes of oleyl conjugated peptides and siRNA solution were mixed in Hank’s balanced salt solution (HBSS) buffer to obtain the complexes. The oleyl conjugated peptide-siRNA complexes were formed due to ionic interaction between positively charged arginine residues of the conjugates and the negatively charged phosphate groups of siRNAs. […] The N to P ratio is commonly used where N represents the number of moles of ionizable nitrogen in the delivery agent. In contrast, P refers to the number of moles of phosphates present in siRNA. The ratio is calculated using the following formula. N/P=number of moles pf peptidex number of ionized nitrogen atoms/(number of moles of siRA ×48)
The peptide-siRNA complexes were characterized using the dynamic light scattering (DLS) technique. Malvern Nano ZS Zetasizer (Westborough, MA, USA) was used to determine the hydrodynamic diameter and surface charge of the complexes at 25 °C. The zeta potential of the complexes was determined at 40 V using disposable folded capillary cells (DTS1070). The calibration of the instrument was performed by transfer standard DTS 1235. The disposable cuvettes were used for determining the hydrodynamic diameter. The N/P ratio 40 was selected for performing the dynamic light scattering experiment. At this N/P ratio, the final concentration of siRNA in the complex was 50 nM whereas the concentration of oleyl-(HR)4 was 24 µM, oleyl-R1-(HR)4 was 19.20 µM, oleyl-R2-(HR)4 was 16 µM, oleyl-R3-(HR)4 was 13.71 µM, oleyl-R4-(HR)4 was 12 µM, and oleyl-R5-(HR)4 was 10.67 µM. The final volume of the complex used for performing zeta potential was 750 µL. The measurements were performed in triplicate, where each measurement consisted of 20 runs. The zeta potential values were calculated using the Smoluchowski model. All the results passed the quality standard of the instrument.
Particle size was also determined at N/P 40 with the same concentrations of siRNA and oleyl conjugated peptides as described above. The experiments were performed in triplicate on each sample with an automatic attenuator setting. The results were checked with the quality standards of the instruments and were represented as mean ± SD of three independent experiments.

MDA-MB-231 cells [2] = test: Cellular internalization of Alexa Fluor 488-labeled siRNA by flow cytometry; type: cell-based; conditions: 24 h; for Increase in cellular uptake of siRNA compared to free siRNA: MDA-MB-231, N/P 40, Alexa-488 siRNA 50 nM, flow cytometry mean fluorescence intensity
Description: The cellular uptake of siRNA complexed with oleyl conjugated peptides was evaluated using flow cytometry (BD-FACSVerse; BD Biosciences, San Jose, CA, USA) in live cells. Alexa fluor 488-labeled scrambled siRNA was used for making complexes with oleyl conjugated peptides. The peptide-siRNA complexes were made at N/P 40; the final concentration of siRNA in each complex was 50 nM. The study was performed on MDA-MB-231 according to the protocol described by Mandal et al.. Briefly, approximately 500,000 cells were seeded in each well of the six-well plates and were allowed to settle for 24 h. The cells were treated with the conjugate-siRNA complexes (N/P 40) and were incubated in a humidified atmosphere of 5% CO2 and 95% air at 37 °C for 24 h. After 24 h of treatment, the cells were washed three times with HBBS and were trypsinized. The suspended cells were centrifuged for 5 min at 1000 rpm (96× g) at 4 °C, and the cells pellet was washed with HBSS three times to remove any traces of the medium. Finally, the cells were resuspended in PBS and analyzed by flow cytometer using Alexa-Fluor-488 channel to quantify the mean fluorescence intensity. The mean fluorescent intensity in the treated cells was calculated for each sample based on the calibration of the signal gated with nontreated cells, serving as a negative control. Alexa-488 labeled scrambled siRNA served as a second negative control, and lipofectamine-siRNA treated cells were used as a positive control.

MDA-MB-231 cells [3] = test: Cellular uptake of siRNA by confocal microscopy; type: cell-based; conditions: MDA-MB-231, fixed cells, N/P 40, siRNA 50 nM, 24 h
Description: Confocal microscopy was used to corroborate the data obtained from flow cytometry. There have been reports for using fixed cells or live cells for imaging the cellular uptake of siRNA. We adopted the protocol of Aliabadi et al. to perform the confocal microscopy. Briefly, approximately 400,000 MDA-MB-231 cells were seeded on coverslips in 6-well plates and were allowed to settle for 24 h. After 24 h, the cells were visualized under an ordinary microscope for their health and confluency. Peptide-siRNA complexes at N/P ratio 40 were made containing a final concentration of 50 nM of siRNA, and the cells were treated with these complexes. Nontreated cells served as negative control while lipofectamine-siRNA complexes were used as a positive control. After 24 h of treatment, the cells grown on coverslips were washed 3 times with HBSS and fixed with 3.7% formaldehyde solutions solution for 30 min at room temperature. The […] of the cells were stained with Texas Red (TR) Phalloidin (Invitrogen) (1:250 in HBSS), while the nuclei of the cells were stained with 4′,6-diamidino-2-phenylindole (DAPI). Nikon A1R confocal microscope system was used to image the fixed cells at 60X objective and different filters for Alexa-488 (FITC), DAPI, and TR.

STAT-3 = STAT-3 protein silencing by peptide/STAT-3 siRNA complexes (Western blot); type: cell-based; conditions: MDA-MB-231, N/P 40, STAT-3 siRNA 50 nM, 48 h; for STAT-3 expression: GAPDH housekeeping
Description: STAT-3 is an essential protein overexpressed in several cancer types, including breast cancer. The silencing effect of the STAT-3 siRNA delivered via oleyl conjugated peptides was determined by checking the expression of STAT-3 in peptide-siRNA complex treated cells. Expression of STAT-3 in nontreated cells served as a negative control, whereas the commercially used transfection agent lipofectamine (20 µg/mL) complexed with STAT-3 siRNA (50 nM) served as the positive control. STAT-3 expression was evaluated by the Western blotting experiment. Approximately 500,000 MDA-MB-231 cells were seeded in T-25 flasks and incubated at 37 °C under standard growth conditions. After 24 h, the cells were treated with peptide-siRNA complexes at N/P 40 for 48 h. The final siRNA concentration at this N/P was 50 nM. After 48 h of treatment, MDA-MB-231 cell lysates were prepared according to the standard protocol using RIPA buffer; the cell lysates were then incubated on ice for 1 h, during which the tubes were sonicated for 3 min after every 10 min. Following sonication for 1 h to ensure the complete lysis of cells, the tubes were centrifuged for 15 min at 12,000 rpm (RCF = 13,870× g) at 4 °C. The supernatant from the centrifuged tubes was transferred to a fresh set of pre-cooled microtubes, and the total protein concentration was determined using […]. Briefly, 200 μL of working reagent (50:1 A:B) was added to 25 μL of standard and unknown samples in triplicate into a 96-well plate, and the sample was mixed on a plate shaker for 30 s. The plate was then incubated at 37 °C and 5% CO2 for 30 min. After half an hour of incubation, the absorbance was measured at 562 nm using a Spectra MAX M5 microplate reader. The protein in each treatment sample was quantified using the BSA standard curve. A total of 15 µg of the protein was loaded per well in a 10% Mini-PROTEAN® TGX Stain-Free. Protein gel electrophoresis was performed in buffer (0.192 M glycine, 25 mM Tris, 0.1% SDS) for 30 min at 200 V. The gel was then transferred to Mini PVDF membrane (Catalog no. 1704156) using Trans-Blot® Turbo (Bio-Rad, Hercules, CA, USA). The membrane was blocked in BSA 5% for 3 h and then incubated at 4 °C overnight with the primary antibody (1:1000 in TBS-T). The membrane was then washed with TBS-T six times (5 min each time) and was subsequently incubated with the secondary HRP-linked antibody (1:1000 in TBS-T) for 1 h, followed by the washing steps. The detection of the bands was done by ECL Detect Kit using a ChemiDoc imager (Bio-Rad, Hercules, CA, USA). The bands were quantified using Image Lab™ software of ChemiDoc imager.

[4] = MDA-MB-231, N/P 40, siRNA 50 nM, flow cytometry, n = 3

Row | Substance | PDI (polydispersity index) [1] | Z-Ave (hydrodynamic diameter) [1] [nm·days] | Increase in cellular uptake of siRNA compared to free siRNA (MDA-MB-231 cells [2]) | Green fluorescence (Alexa-488 siRNA) in confocal images (MDA-MB-231 cells [3]) | Reduction (inhibition) in STAT-3 expression (STAT-3) | STAT-3 expression (STAT-3) | Cellular uptake compared with lipofectamine (MDA-MB-231 cells [2]; [4]) | Cellular uptake of siRNA within the series (MDA-MB-231 cells [2]; [4]) | STAT-3 inhibition compared with Lipofectamine 2000 (STAT-3; three independent experiments) | Mean fluorescent intensity compared with Alexa-488 siRNA treated cells (MDA-MB-231 cells [2]; [4])
1 | Oleyl-R-(HR)4-OH [Oleyl-R1-(HR)4] | 0.201 | 116.9 |  |  |  |  |  |  |  | nonsignificant difference in intensity
2 | Oleyl-RRR-(HR)4-OH [Oleyl-R3-(HR)4] | 0.229 | 117 | ~ 80 fold |  | ~ 55% | ~ 55% |  |  |  | 
3 | Oleyl-RR-(HR)4-OH [Oleyl-R2-(HR)4] | 0.217 | 115.6 |  |  | ~ 68% | ~ 68% |  |  |  | 
4 | Oleyl-(HR)4-OH | 0.213 | 120.1 |  |  |  |  |  |  |  | nonsignificant difference in intensity

Second part, led by results:

Row | PDI (polydispersity index) [1] | Z-Ave (hydrodynamic diameter) [1] [nm·days] | Substance | Increase in cellular uptake of siRNA compared to free siRNA (MDA-MB-231 cells [2]) | Green fluorescence (Alexa-488 siRNA) in confocal images (MDA-MB-231 cells [3]) | Reduction (inhibition) in STAT-3 expression (STAT-3) | STAT-3 expression (STAT-3) | Cellular uptake compared with lipofectamine (MDA-MB-231 cells [2]; [4]) | Cellular uptake of siRNA within the series (MDA-MB-231 cells [2]; [4]) | STAT-3 inhibition compared with Lipofectamine 2000 (STAT-3; three independent experiments) | Mean fluorescent intensity compared with Alexa-488 siRNA treated cells (MDA-MB-231 cells [2]; [4])
5 | 0.237 | 115.2 | Oleyl-RRRR-(HR)4-OH [Oleyl-R4-(HR)4] | ~ 80 fold | comparable green fluorescence | ~ 41% | ~ 41% |  |  |  | 
6 | 0.213 | 115.6 | Oleyl-RRRRR-(HR)4-OH [Oleyl-R5-(HR)4, oleyl conjugated peptide with five R residues between oleyl and (HR)4] |  | comparable green fluorescence | ~ 80% | ~ 20% | nonsignificant difference | maximum cellular uptake | comparable inhibition | 
